Reference: US20220062240A1, “METHODS OF TREATING CANCER USING A CLK INHIBITOR” (BioSplice Therapeutics, Inc., priority 2018, published 2022)
Where two headings read alike, the source gives them in different places.

Assays:
[1] = system: ovarian cancer (4 cell lines); assay: CellTiter-Glo Viability Assay, ovarian cancer; format: cell-based; conditions: Homo sapiens, inhibition of cancer cell proliferation
[2] = system: lung cancer (4 cell lines); assay: CellTiter-Glo Viability Assay, lung cancer; format: cell-based; conditions: Homo sapiens, inhibition of cancer cell proliferation
all 50 cell lines = assay: CellTiter-Glo Viability Assay, average across all cell lines; format: cell-based; conditions: Homo sapiens; across all 50 cell lines; read-out: average EC50 for inhibition of cancer cell proliferation
How it was run: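 Human cancer cell lines from breast, colorectal, haematopoietic/lymphoid, liver, lung, ovarian, pancreatic and prostate tumours were seeded at 300-3,000 cells/well and exposed to compound in duplicate for four days at 37° C, 5% CO2. Viable cells were measured by ATP luminescence; EC50 values came from dose-response curves.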

[3] = system: liver cancer (3 cell lines); assay: CellTiter-Glo Viability Assay, liver cancer; format: cell-based; conditions: Homo sapiens, inhibition of cancer cell proliferation
CLK3 = CLK3 (Homo sapiens, UniProt P49761); assay: CLK3 kinase activity assay (Z-lyte, Ser/Thr 18 peptide)
[4] = system: colorectal cancer (6 cell lines); assay: CellTiter-Glo Viability Assay, colorectal cancer; format: cell-based; conditions: Homo sapiens, inhibition of cancer cell proliferation
MCF7 = assay: CellTiter-Glo Viability Assay, breast cancer; format: cell-based; conditions: Homo sapiens, 96 h; MCF7, breast cancer, four days; read-out: EC50
MDA-MB-231-Luc = assay: CellTiter-Glo Viability Assay, breast cancer; format: cell-based; conditions: Homo sapiens, 96 h; MDA-MB-231-Luc, breast cancer, four days; read-out: EC50
T47D = assay: CellTiter-Glo Viability Assay, breast cancer; format: cell-based; conditions: Homo sapiens, 96 h, breast cancer, four days, read-out: EC50
DU4475 = assay: CellTiter-Glo Viability Assay, breast cancer; format: cell-based; conditions: Homo sapiens, DU-4475, 96 h; DU4475, breast cancer, four days; read-out: EC50
BT-549 = assay: CellTiter-Glo Viability Assay, breast cancer; format: cell-based; conditions: Homo sapiens, 96 h; BT-549, breast cancer, four days; read-out: EC50
ZR-75-1 = assay: CellTiter-Glo Viability Assay, breast cancer; format: cell-based; conditions: Homo sapiens, 96 h; ZR-75-1, breast cancer, four days; read-out: EC50
HCC1599 = assay: CellTiter-Glo Viability Assay, breast cancer; format: cell-based; conditions: Homo sapiens, 96 h; HCC1599, breast cancer, four days; read-out: EC50
CAMA1 = assay: CellTiter-Glo Viability Assay, breast cancer; format: cell-based; conditions: Homo sapiens, CAMA-1, 96 h; CAMA1, breast cancer, four days; read-out: EC50
[5] = system: haematopoietic & lymphoid tumors (13 cell lines); assay: CellTiter-Glo Viability Assay, haematopoietic & lymphoid tumors; format: cell-based; conditions: Homo sapiens, inhibition of cancer cell proliferation
[6] = system: prostate cancer (5 cell lines); assay: CellTiter-Glo Viability Assay, prostate cancer; format: cell-based; conditions: Homo sapiens
CLK2 = biological target: T1, CLK2 (Homo sapiens, UniProt P49760); assay: CLK2 kinase activity assay (Z-lyte, Ser/Thr 6 peptide); format: biochemical; conditions: recombinant CLK2 kinase, ATP 60 μM; read-out: EC50
T1 construct: purchased Thermo Fisher (Life Technologies), Z'-LYTE Kinase Assay Kits
Procedure: All reactions were performed in duplicate.

[7] = system: pancreatic cancer (8 cell lines); assay: CellTiter-Glo Viability Assay, pancreatic cancer; format: cell-based; conditions: Homo sapiens, inhibition of cancer cell proliferation

Sequence of CLK3 (P49761 whole entry): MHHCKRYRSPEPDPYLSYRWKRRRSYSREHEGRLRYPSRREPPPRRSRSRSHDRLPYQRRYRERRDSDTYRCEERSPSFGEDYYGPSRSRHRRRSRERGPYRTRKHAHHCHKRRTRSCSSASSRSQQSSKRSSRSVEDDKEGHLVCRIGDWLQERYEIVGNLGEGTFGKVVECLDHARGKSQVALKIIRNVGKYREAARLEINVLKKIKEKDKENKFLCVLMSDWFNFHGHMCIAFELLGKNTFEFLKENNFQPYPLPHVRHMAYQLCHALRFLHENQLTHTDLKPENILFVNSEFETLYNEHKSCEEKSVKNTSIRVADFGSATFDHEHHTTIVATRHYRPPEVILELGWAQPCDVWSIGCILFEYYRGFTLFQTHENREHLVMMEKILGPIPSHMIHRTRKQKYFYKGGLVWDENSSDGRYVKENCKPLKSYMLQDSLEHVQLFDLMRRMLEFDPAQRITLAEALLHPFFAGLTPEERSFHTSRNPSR
T1 sequence (P49760 whole entry): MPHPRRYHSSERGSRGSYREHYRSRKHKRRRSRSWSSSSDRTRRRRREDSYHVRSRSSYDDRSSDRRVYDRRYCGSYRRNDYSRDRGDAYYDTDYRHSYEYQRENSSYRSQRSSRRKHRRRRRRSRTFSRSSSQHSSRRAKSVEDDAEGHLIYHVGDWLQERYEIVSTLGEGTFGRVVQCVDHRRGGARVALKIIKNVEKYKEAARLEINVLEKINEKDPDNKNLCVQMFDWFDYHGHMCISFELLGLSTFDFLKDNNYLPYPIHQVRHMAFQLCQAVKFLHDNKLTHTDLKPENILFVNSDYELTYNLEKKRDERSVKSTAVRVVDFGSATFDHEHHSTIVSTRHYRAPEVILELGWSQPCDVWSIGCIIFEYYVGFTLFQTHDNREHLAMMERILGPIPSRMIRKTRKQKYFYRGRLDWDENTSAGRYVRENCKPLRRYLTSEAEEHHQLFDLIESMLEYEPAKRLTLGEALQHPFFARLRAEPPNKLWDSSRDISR

EC50 ([1]; PA-1, PA1 cell line, read-out: Ovarian cancer, EC50 (μM) PA1): 0.405 µM
EC50 ([1]; TOV112D, TOV-112D cell line, read-out: Ovarian cancer, EC50 (μM) TOV-112D): 0.475 µM
EC50 ([1]; OV-90 cell line, read-out: Ovarian cancer, EC50 (μM) OV-90): 1.08 µM
EC50 ([1]; OVCAR-3 cell line, read-out: Ovarian cancer, EC50 (μM) OVCAR-3): 0.116 µM
EC50 ([2]; A-427, A427 cell line, read-out: Lung cancer, EC50 (μM) A427): 0.35 µM
EC50 ([2]; HCC78, HCC-78 cell line, read-out: Lung cancer, EC50 (μM) HCC-78): 1.69 µM
EC50 ([2]; NCI-H460 cell line, read-out: Lung cancer, EC50 (μM) NCI-H460): 2.65 µM
EC50 ([2]; NCI-H522 cell line, read-out: Lung cancer, EC50 (μM) NCI-H522): 0.191 µM
EC50 ([3]; SNU-398, SNU398 cell line, read-out: Liver cancer, EC50 SNU398): 120 nM
EC50 ([3]; HEPG2 cell line, read-out: Liver cancer, EC50 HEPG2): 452 nM
EC50 ([3]; PLC/PRF/5 cell line, read-out: Liver cancer, EC50 PLC/PRF/5): 2030 nM
EC50 (CLK3): 12.8 nM
EC50 ([4]; HCT-116, HCT116 cell line, read-out: Colorectal cancer, EC50 (μM) HCT116): 0.639 µM
EC50 ([4]; HT-29, HT29 cell line, read-out: Colorectal cancer, EC50 (μM) HT29): 2.52 µM
EC50 ([4]; SW-620, SW620 cell line, read-out: Colorectal cancer, EC50 (μM) SW620): 0.455 µM
EC50 ([4]; DLD-1 cell line, read-out: Colorectal cancer, EC50 (μM) DLD-1): 1.76 µM
EC50 ([4]; SW48 cell line, read-out: Colorectal cancer, EC50 (μM) SW48): 0.174 µM
EC50 ([4]; SW480 cell line, read-out: Colorectal cancer, EC50 (μM) SW480): 0.486 µM
EC50 (MCF7): 1600 nM
EC50 (MDA-MB-231-Luc): 557 nM
EC50 (T47D): 296 nM
EC50 (DU4475): 169 nM
EC50 (BT-549): 734 nM
EC50 (ZR-75-1): 738 nM
EC50 (HCC1599): 57 nM
EC50 (CAMA1): 252 nM
EC50 ([5]; DND41, DND-41 cell line, read-out: Haematopoietic & Lymphoid tumors, EC50 (μM) DND-41): 0.154 µM
EC50 ([5]; MV4-11, MV-4-11 cell line, read-out: Haematopoietic & Lymphoid tumors, EC50 (μM) MV-4-11): 0.088 µM
EC50 ([5]; Rec1, REC-1 cell line, read-out: Haematopoietic & Lymphoid tumors, EC50 (μM) REC-1): 1.45 µM
EC50 ([5]; SU-DHL-4, SUDHL4 cell line, read-out: Haematopoietic & Lymphoid tumors, EC50 (μM) SUDHL4): 0.641 µM
EC50 ([5]; HL-60 cell line, read-out: Haematopoietic & Lymphoid tumors, EC50 (μM) HL-60): 3.24 µM
EC50 ([5]; JM1 cell line, read-out: Haematopoietic & Lymphoid tumors, EC50 (μM) JM1): 0.121 µM
EC50 ([5]; JURKAT, Clone E6-1 cell line, read-out: Haematopoietic & Lymphoid tumors, EC50 (μM) JURKAT, Clone E6-1): 1.42 µM
EC50 ([5]; JeKo-1 cell line, read-out: Haematopoietic & Lymphoid tumors, EC50 (μM) JeKo-1): 0.039 µM
EC50 ([5]; KASUMI-1 cell line, read-out: Haematopoietic & Lymphoid tumors, EC50 (μM) KASUMI-1): 0.685 µM
EC50 ([5]; Loucy cell line, read-out: Haematopoietic & Lymphoid tumors, EC50 (μM) Loucy): 0.207 µM
EC50 ([5]; MOLT-4 cell line, read-out: Haematopoietic & Lymphoid tumors, EC50 (μM) MOLT-4): 0.503 µM
EC50 ([5]; TF-1 cell line, read-out: Haematopoietic & Lymphoid tumors, EC50 (μM) TF-1): 3.05 µM
EC50 ([5]; TOLEDO cell line, read-out: Haematopoietic & Lymphoid tumors, EC50 (μM) TOLEDO): 0.219 µM
EC50 ([6]; DU-145, read-out: Prostate cancer EC50 Du-145): 1190 nM
EC50 ([6]; PC-3, PC3 cell line, inhibition of cancer cell proliferation, read-out: Prostate cancer EC50 PC3): 831 nM
EC50 ([6]; 22Rv1 cell line, inhibition of cancer cell proliferation, read-out: Prostate cancer EC50 22Rv1): 360 nM
EC50 ([6]; LNCap clone FGC cell line, inhibition of cancer cell proliferation, read-out: Prostate cancer EC50 LNCap clone FGC): 4240 nM
EC50 ([6]; VCaP (Sigma) cell line, inhibition of cancer cell proliferation, read-out: Prostate cancer EC50 VCaP (Sigma)): 3470 nM
EC50 (CLK2): 0.9 nM
EC50 ([7]; BXPC-3, BxPC3 cell line, read-out: Pancreatic cancer, EC50 BxPC3): 2680 nM
EC50 ([7]; CAPAN-1, Capan1 cell line, read-out: Pancreatic cancer, EC50 Capan1): 1900 nM
EC50 ([7]; Capan-2, Capan2 cell line, read-out: Pancreatic cancer, EC50 Capan2): 1280 nM
EC50 ([7]; MIA PaCa-2 cell line, read-out: Pancreatic cancer, EC50 MIA PaCa-2): 331 nM
EC50 ([7]; PANC 05.04 cell line, read-out: Pancreatic cancer, EC50 PANC 05.04): 1170 nM
EC50 ([7]; PANC-1 cell line, read-out: Pancreatic cancer, EC50 PANC-1): 3850 nM
EC50 ([7]; UPAFII cell line, read-out: Pancreatic cancer, EC50 UPAFII): 397 nM
Compound: CN1CCN(c2ccc(NC(=O)c3n[nH]c4ccc(-c5cncc(NC(=O)C6CC6)c5)cc34)cn2)CC1 [Compound 60]
EC50 (all 50 cell lines): 1070 nM
